Measured values from ChEMBL document CHEMBL5053510, “Discovery of AS-1763: A Potent, Selective, Noncovalent, and Orally Available Inhibitor of Bruton's Tyrosine Kinase” (J Med Chem, 2021).

Tests used:
[1] = molecular target: Tyrosine-protein kinase BTK (Homo sapiens, UniProt Q06187); assay: Inhibition of human BTK-A using phosphorylated substrate in presence of ATP by microplate reader assay
OCI-Ly10 = assay: Antiproliferative activity against human OCILY10 cells assessed as reduction in cell proliferation measured after 96 hrs; type: functional, cell-based; details: OCI-Ly10, 96 h

Chain of Tyrosine-protein kinase BTK (Q06187 whole entry): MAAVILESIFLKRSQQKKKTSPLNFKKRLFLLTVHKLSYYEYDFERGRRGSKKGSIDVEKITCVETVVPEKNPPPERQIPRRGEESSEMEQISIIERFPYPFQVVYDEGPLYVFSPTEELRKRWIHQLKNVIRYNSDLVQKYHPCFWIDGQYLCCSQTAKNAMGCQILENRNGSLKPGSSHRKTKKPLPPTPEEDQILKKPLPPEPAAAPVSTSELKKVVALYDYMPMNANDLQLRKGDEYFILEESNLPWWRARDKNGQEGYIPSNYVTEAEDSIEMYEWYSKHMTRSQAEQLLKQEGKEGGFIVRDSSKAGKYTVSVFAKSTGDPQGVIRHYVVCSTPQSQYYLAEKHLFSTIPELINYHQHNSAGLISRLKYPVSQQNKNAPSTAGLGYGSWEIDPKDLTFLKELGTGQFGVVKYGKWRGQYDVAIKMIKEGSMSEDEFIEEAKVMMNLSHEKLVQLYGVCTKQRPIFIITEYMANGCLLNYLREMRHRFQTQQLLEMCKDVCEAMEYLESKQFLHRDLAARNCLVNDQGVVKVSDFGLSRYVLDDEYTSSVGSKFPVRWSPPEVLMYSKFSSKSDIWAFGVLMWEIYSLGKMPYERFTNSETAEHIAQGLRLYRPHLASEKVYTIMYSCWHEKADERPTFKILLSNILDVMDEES

Compound	IC50 [1] [nM]	IC50 (OCI-Ly10) [nM]
Nc1nc(-c2cccc(-n3ccc4cc(C5CC5)cc(F)c4c3=O)c2CO)c2cc[nH]c2n1	51	
CN(C)C(=O)N1CC=C(c2cc3c(-c4cccc(-n5ccc6cc(C7CC7)cc(F)c6c5=O)c4CO)nc(N)nc3[nH]2)CC1	0.54	
Nc1nc(-c2cccc(-n3ccc4cc(C5CC5)cc(F)c4c3=O)c2CO)c2cc(C3=CCNCC3)[nH]c2n1	0.65	
Nc1nc(-c2cccc(-n3ccc4cc(C5CC5)cc(F)c4c3=O)c2CO)c2cc(C3=CCN(C(=O)CN4CCOCC4)CC3)[nH]c2n1	0.69	13

The next lines start with the values.

IC50 [1] [nM]	IC50 (OCI-Ly10) [nM]	Compound
14		Nc1nc(-c2cccc(-n3ccc4cc(C5CC5)cc(F)c4c3=O)c2CO)c2cc(-c3ccccc3)[nH]c2n1
0.14		Nc1nc(-c2cccc(-n3ccc4cc(C5CC5)cc(F)c4c3=O)c2CO)c2cc(-c3ccncc3)[nH]c2n1
